The nature of series [1]: Plasma levels following oral administration to rats. Conditions: rat, oral gavage; including both bound and free; normalised dose of 1 mg compound per kilogram of rat body weight. The format is in vivo. Here is the method: (§1) Measurement of Plasma Levels and Plasma Protein Binding Following Oral Administration to Rats
Planetary Milled compounds [15 mins, 500 rpm, 5 Zirconium Balls, in a Puluerisette 7 Mill (Glen Creston Ltd, Stanmore, Middlesex, UK)] were suspended in 0.5% HPMC Tween and dosed to High Fat Fed (Research Diets, D12451, ad lib feeding 14 days) Female Alderley Park Zucker or Alderley Park Wistar rats at rate of 5 mls/kg, at doses between 0.3 and 10 mg/kg by oral gavage.
Samples of plasma were obtained either by conscious blood sampling or terminal blood sampling as follows:
Conscious blood sampling (for compound level or blood chemistry)—Intravenous blood samples were taken from tail vein using 600 μl Starstedt Multivette (EDTA) and 22 G needle at the required time point. […]
The reconstituted samples were then analysed using high performance liquid chromatography with tandem mass spectrometry detection (HPLC-MS-MS)”. […]
The concentration of test samples was determined from the ratio of the peak height of the test sample to the peak height of the internal standard. The concentration of the test sample was calculated with reference to a standard curve relating the ratio to the concentration prepared by using known concentrations of test sample added to samples of rat plasma using (3-isopropoxy-5-benzyoxy-benzoyl)amino pyridine 3-carboxylic acid as an internal standard, treated as described above.

Series [2] in a line: Plasma protein binding by equilibrium dialysis. It counts as in vitro ADME. The note with it: rat, 37° C., plasma vs isotonic phosphate buffer pH 7.4, read-out: % free in plasma. Here is the method: as §1
The plasma protein binding of compounds was measured using the equilibrium dialysis technique (W. Lindner et al, J. Chromatography, 1996, 677, 1-28 ). Compound was dialysed at a concentration of 20 μM for 18 hours at 37° C. with plasma and isotonic phosphate buffer pH 7.4 (1 ml of each in the dialysis cell). A Spectrum® 20-cell equilibrium dialyser was used together with Teflon, semi-micro dialysis cells and Spectra/Por®2 membrane discs with a molecular weight cut off 12-14000 Dalton, 47 mm (supplied by PerBio Science UK Ltd, Tattenhall, Cheshire). Plasma and buffer samples are removed following dialysis and analysed using HPLCUV/MS (high performance liquid chromatography with UV and mass spec detection) to give the % free level in plasma.
(Equilibrium dialysis compares concentrations on both sides of a semipermeable membrane.)

`COC[C@H](C)Oc1cc(O[C@@H](C)Cc2ccccc2OC)cc(C(=O)Nc2ccc(C(=O)O)cn2)c1` [Example 2.1, 6-{3-[(1S)-1-methyl-2-(2-methoxyphenyl)ethoxy]-5-[(1S)-2-methoxy-1-methylethoxy]-benzoylamino}-3-pyridine carboxylic acid]: the “Peak Blood levels” value in series [1] amounted to 1.29 µM. In series [2], the fraction unbound at 18 hours, 20 μM is 0.0042.

Values taken from patent US20070078168A1, “PYRIDINE CARBOXYLIC ACID DERIVATIVES AS GLUCOKINASE MODULATORS” (priority 2003, published 2007).
